# Reference: US9381200B2, “Nitrogen containing compounds” (WOCKHARDT LIMITED, priority 2011, dated 2016)
# Read-outs that look alike come from different tables or passages of the source.
# Legend:
# Test in all cases: Antibacterial activity (MIC), agar dilution per CLSI
# Assay type in all cases: cell-based
# E. coli 7 MP = details: Table 3, E. coli 7 MP expressing ESBL
# Procedure: (§1) The biological activity of representative compounds according to the invention against various bacterial strains was investigated. In a typical study, overnight grown bacterial cultures were diluted appropriately and inoculated on the agar media containing doubling dilutions of the test compounds. Observation for growth or no growth was performed after 16-20 hours of incubation at 35±2° C. in ambient air. The overall procedure was performed as per Clinical and Laboratory Standards Institute (CLSI) recommendations (Clinical and Laboratory Standards Institute (CLSI), Performance Standards for Antimicrobial Susceptibility Testing, 20th Informational Supplement, M 100-S20, Volume 30, No. 1, 2010).
# (§2) Table 3 details antibacterial activity of representative compounds according to the invention against various E. coli strains (NCTC 13351, M 50 and 7 MP) expressing ESBL (Extended Spectrum Beta Lactamases).
# E. coli NCTC 13351 = details: 16-20 hours, 35±2° C.
# Procedure: as §1, §2
# E. coli M 50 = E. coli M 50 expressing ESBL, agar dilution
# Procedure: as §1
# The activities are expressed as MICs (mcg/ml).
# [1] = Table 3, E. coli NCTC 13351 expressing ESBL
# [2] = Escherichia coli, read-out: MIC
# [3] = Escherichia coli, NCTC13351, Table 3, E. coli NCTC 13351 expressing ESBL, read-out: MIC
# [4] = Escherichia coli, M50, Table 3, read-out: MIC
MIC (E. coli 7 MP),MIC (E. coli NCTC 13351; [1]),MIC (E. coli M 50; Table 3),MIC (E. coli 7 MP; [2]),MIC (E. coli NCTC 13351; [3]),MIC (E. coli M 50; [4]),SMILES
–,–,–,4 µg/mL,1 µg/mL,1 µg/mL,"O=C(CC(=O)N1CCNCC1)NNC(=O)[C@H]1CC[C@@H]2CN1C(=O)N2OS(=O)(=O)O (relative stereo) [Example 40, trans-sulfuric acid mono-[2-(N′-(3-oxo-3-piperazin-1-yl-propionyl)-hydrazinocarbonyl)-7-oxo-1,6-diaza-bicyclo[3.2.1]oct-6-yl]ester]"
–,–,–,16 µg/mL,8 µg/mL,8 µg/mL,"O=C(O)CON1C(=O)N2C[C@H]1CC[C@H]2C(=O)NNC(=O)[C@@H]1CCCNC1 [Example 4, trans-{7-oxo-2-[N′—((R)-piperidin-3-carbonyl)-hydrazinocarbonyl]-1,6-diaza-bicyclo[3.2.1]-oct-6-yloxy}-acetic acid]"
–,–,–,32 µg/mL,1 µg/mL,8 µg/mL,"CO[C@H]1CN[C@H](C(=O)NNC(=O)[C@H]2CC[C@@H]3CN2C(=O)N3OS(=O)(=O)O)C1 (mixture of isomers) [Example 12, trans-sulfuric acid mono-[2-(N′-[(2S,4R)-4-methoxy-pyrrolidin-2-carbonyl]-hydrazinocarbonyl)-7-oxo-1,6-diaza-bicyclo[3.2.1]oct-6-yl]ester]"
–,–,–,1 µg/mL,0.5 µg/mL,0.5 µg/mL,"O=C(NNC(=O)[C@H]1CC[C@@H]2CN1C(=O)N2OS(=O)(=O)O)C1CCNC1 (mixture of isomers) [Example 32, trans-sulfuric acid mono-[2-(N′—[(RS)-pyrrolidin-3-carbonyl]-hydrazinocarbonyl)-7-oxo-1,6-diaza-bicyclo[3.2.1]oct-6-yl]ester]"
2 µg/mL,0.5 µg/mL,0.5 µg/mL,–,–,–,"O=C1CC[C@@H](C(=O)NNC(=O)[C@H]2CC[C@@H]3CN2C(=O)N3OS(=O)(=O)[O-])N1.[Na+] (relative stereo) [Example 52, Sodium salt of trans-sulfuric acid mono-[2-(N′—[(S)-5-oxo-pyrrolidin-2-carbonyl]-hydrazinocarbonyl)-7-oxo-1,6-diaza-bicyclo[3.2.1]oct-6-yl]ester]"
–,–,–,8 µg/mL,2 µg/mL,2 µg/mL,"O=C(NNC(=O)[C@H]1CC[C@@H]2CN1C(=O)N2OS(=O)(=O)O)[C@@H]1C[C@@H](O)CN1 (mixture of isomers) [Example 34, trans-sulfuric acid mono-[2-(N′-[(2S,4R)-4-hydroxy-pyrrolidin-2-carbonyl]-hydrazinocarbonyl)-7-oxo-1,6-diaza-bicyclo[3.2.1]oct-6-yl]ester]"
8 µg/mL,2 µg/mL,2 µg/mL,–,–,–,"NC(C(=O)NNC(=O)[C@H]1CC[C@@H]2CN1C(=O)N2OS(=O)(=O)O)c1ccccc1 (mixture of isomers) [Example 20, trans-sulfuric acid mono-[2-(N′—((RS)-1-amino-1-phenyl-acetyl)-hydrazinocarbonyl)-7-oxo-1,6-diaza-bicyclo[3.2.1]oct-6-yl]ester]"
–,–,–,128 µg/mL,32 µg/mL,64 µg/mL,"NNC(=O)[C@H]1CC[C@@H]2CN1C(=O)N2OS(=O)(=O)O (relative stereo) [Example 6, trans-sulfuric acid mono-[2-hydrazinocarbonyl-7-oxo-1,6-diaza-bicyclo[3.2.1]oct-6-yl]ester]"
–,–,–,8 µg/mL,4 µg/mL,4 µg/mL,"NCC1(C(=O)NNC(=O)[C@H]2CC[C@@H]3CN2C(=O)N3OS(=O)(=O)O)CC1 (relative stereo) [Example 23, trans-sulfuric acid mono-[2-(N′-(1-aminomethyl-cyclopropan-1-carbonyl)-hydrazinocarbonyl)-7-oxo-1,6-diaza-bicyclo[3.2.1]oct-6-yl]ester]"
–,–,–,4 µg/mL,2 µg/mL,2 µg/mL,"O=C(CCC1CCCCN1)NNC(=O)[C@H]1CC[C@@H]2CN1C(=O)N2OS(=O)(=O)O (mixture of isomers) [Example 37, trans-sulfuric acid mono-[2-(N′—[(RS)-3-piperidin-2-yl-propionyl]-hydrazinocarbonyl)-7-oxo-1,6-diaza-bicyclo[3.2.1]oct-6-yl]ester]"
16 µg/mL,32 µg/mL,16 µg/mL,–,–,–,"NC(=O)N1C[C@@H](F)C[C@H]1C(=O)NNC(=O)C1CCC2CN1C(=O)N2OS(=O)(=O)[O-].[Na+] (relative stereo) [Example 49, Sodium salt of trans-sulfuric acid mono-[2-(N′—[(2S,4S)-1-carbamoyl-4-fluoro-pyrrolidin-2-carbonyl]-hydrazinocarbonyl)-7-oxo-1,6-diaza-bicyclo[3.2.1]oct-6-yl]ester]"
4 µg/mL,1 µg/mL,1 µg/mL,–,–,–,"NC(=O)CCC(N)C(=O)NNC(=O)[C@H]1CC[C@@H]2CN1C(=O)N2OS(=O)(=O)O (relative stereo) [Example 24, trans-sulfuric acid mono-[2-(N′-(2-amino-4-carboxamido-butanoyl)-hydrazinocarbonyl)-7-oxo-1,6-diaza-bicyclo[3.2.1]oct-6-yl]ester]"
32 µg/mL,1 µg/mL,8 µg/mL,–,–,–,N[C@@H](CO)C(=O)NNC(=O)[C@H]1CC[C@@H]2CN1C(=O)N2OS(=O)(=O)O (relative stereo) [Example 10]
–,–,–,8 µg/mL,4 µg/mL,4 µg/mL,"CC(C)(CN)C(=O)NNC(=O)[C@H]1CC[C@@H]2CN1C(=O)N2OS(=O)(=O)O (relative stereo) [Example 22, trans-sulfuric acid mono-[2-(N′-(3-amino-2,2-dimethyl-propioyl)-hydrazinocarbonyl)-7-oxo-1,6-diaza-bicyclo[3.2.1]oct-6-yl]ester]"
–,–,–,2 µg/mL,1 µg/mL,1 µg/mL,"O=C(NNC(=O)[C@H]1CC[C@@H]2CN1C(=O)N2OS(=O)(=O)O)C1CCCCN1 (mixture of isomers) [Example 16, trans-sulfuric acid mono-[2-(N′—((RS)-piperidin-2-carbonyl)-hydrazinocarbonyl)-7-oxo-1,6-diaza-bicyclo[3.2.1]oct-6-yl]ester]"
4 µg/mL,1 µg/mL,1 µg/mL,–,–,–,"O=C(CC[C@@H]1CCCN1)NNC(=O)[C@H]1CC[C@@H]2CN1C(=O)N2OS(=O)(=O)O (relative stereo) [Example 31, trans-sulfuric acid mono-[2-(N′—[((S)-3-pyrrolidin-2-yl)-propionyl]-hydrazinocarbonyl)-7-oxo-1,6-diaza-bicyclo[3.2.1]oct-6-yl]ester]"
–,–,–,64 µg/mL,32 µg/mL,32 µg/mL,"Nc1nc(C(=O)NNC(=O)[C@H]2CC[C@@H]3CN2C(=O)N3OS(=O)(=O)O)cs1 (relative stereo) [Example 42, trans-sulfuric acid mono-[2-(N′-(2-amino-thiazol-4-carbonyl)-hydrazinocarbonyl)-7-oxo-1,6-diaza-bicyclo[3.2.1]oct-6-yl]ester]"
32 µg/mL,16 µg/mL,8 µg/mL,–,–,–,"NC(=O)N1CCC[C@H]1C(=O)NNC(=O)[C@H]1CC[C@@H]2CN1C(=O)N2OS(=O)(=O)[O-].[Na+] (relative stereo) [Example 48, Sodium salt of trans-sulfuric acid mono-[2-(N′—[(S)-1-carbamoyl-pyrrolidin-2-carbonyl]-hydrazinocarbonyl)-7-oxo-1,6-diaza-bicyclo [3.2.1]oct-6-yl]ester]"
128 µg/mL,32 µg/mL,64 µg/mL,–,–,–,"NC(=O)c1cccc(C(=O)NNC(=O)C2CCC3CN2C(=O)N3OS(=O)(=O)[O-])n1.[Na+] (stereo not drawn) [Example 46, Sodium salt of trans-sulfuric acid mono-[2-(N′-(6-carboxamido-pyridin-2-carbonyl)-hydrazinocarbonyl)-7-oxo-1,6-diaza-bicyclo[3.2.1]oct-6-yl]ester]"
16 µg/mL,4 µg/mL,4 µg/mL,–,–,–,"NC(C(=O)NNC(=O)[C@H]1CC[C@@H]2CN1C(=O)N2OS(=O)(=O)O)c1ccccn1 (mixture of isomers) [Example 41, trans-sulfuric acid mono-[2-(N′—((RS)-1-amino-1-pyridin-2-yl-acetyl)-hydrazinocarbonyl)-7-oxo-1,6-diaza-bicyclo[3.2.1]oct-6-yl]ester]"
–,–,–,8 µg/mL,4 µg/mL,2 µg/mL,"NCCOCC(=O)NNC(=O)[C@H]1CC[C@@H]2CN1C(=O)N2OS(=O)(=O)O (relative stereo) [Example 27, trans-sulfuric acid mono-[2-(N′-((2-aminoethoxy)-acetyl)-hydrazinocarbonyl)-7-oxo-1,6-diaza-bicyclo[3.2.1]oct-6-yl]ester]"

SMILES,MIC (E. coli 7 MP),MIC (E. coli NCTC 13351; [1]),MIC (E. coli M 50; Table 3),MIC (E. coli 7 MP; [2]),MIC (E. coli NCTC 13351; [3]),MIC (E. coli M 50; [4])
"CC(C)(C#N)C(=O)NNC(=O)[C@H]1CC[C@@H]2CN1C(=O)N2OS(=O)(=O)[O-].[Na+] (relative stereo) [Example 51, Sodium salt of trans-sulfuric acid mono-[2-(N′-(cyano-dimethyl-acetyl)-hydrazinocarbonyl)-7-oxo-1,6-diaza-bicyclo[3.2.1]oct-6-yl]ester]",32 µg/mL,16 µg/mL,16 µg/mL,–,–,–
